Results taken from patent EP1466597A1, “Use of dha esters to control or prevent cardiovascular diseases” (Clinigenetics, priority 2003, dated 2004).
“Also recorded” adds a separate entry of the source.

How the values were obtained:
[1] = system: PMA stimulated THP1 cells; assay: Inhibition of lipoprotein (Cy3-oxLDL) uptake / lipid vesicle accumulation in macrophage foam cells; format: cell-based; conditions: PMA-differentiated THP1 cells, 2 hours with cy3 labeled oxLDL (1 µg/ml), fluorescence microscopy
Method: The THP-1 cell line from the European Collection of Cell Cultures, (ECACC, Wilshire, UK) were selected to generate a cellular model that mimics the differentiation and the growth of a foam cell. Typically, the cells (5.10^5 cells/ml) were maintained and grown in RPMI-1640, 10% FBS, 100 Unit/ml penicillin and 100 µg/ml streptomycin, […] L-Glutamine (Biowhittaker, Verviers , Belgium) in 37°C, 5% CO2 incubator. Medium was replaced every 2-3 days.
Human LDL were isolated from fresh plasma using a two steps KBr gradient ultracentrifugation (Leger et al., Free Rad. Res., 2002, 36, 127-142), LDL were dialyzed against NaCl 150 mM, sodium phosphate 10 mM, DTPA 10 µM (pH 7,4) for 24 hours. […]
Finally, lipoproteins were also characterized by their electrophoretic mobility. […] At the end of the labeling procedure, Cy3-OxLDL was extensively dialyzed and labeling efficiency was evaluated by measuring the absorbance at 548 nm.
To induce differentiation into macrophages, 1.5 10^5 cells/wells were plated in 96-well plates in culture medium supplemented with 10^-7 M of phorbol 12-myristate-13-acetate (Sigma) for 24 hours at 37°C, 5% CO2. […] After 2 washes with PBS, images of Cy-3 oxLDL uptake were captured using a fluorescence microscope coupled with a CCD camera. Each image was analyzed and quantified using QFluoro Software (Leica).

thromboxane A2 = conditions: described in EP 0 623 019; cited from earlier work

Question: What does the source list for `CC/C=C\C/C=C\C/C=C\C/C=C\C/C=C\C/C=C\CCC(=O)O[C@H](CO)COP(=O)([O-])OCC[N+](C)(C)C` [lyso-PCDHA, 1-lyso, 2-DHA-glycero-phosphocholine]?
Answer: accumulation of lipid vesicles in macrophage / formation of foam cells [1]: can block the accumulation of lipid rich vesicles in macrophage and prevent the formation of foam cell; also recorded: Dose dependent effect for the inhibition of lipid vesicles in macrophage cells; also recorded: can inhibit the accumulation of lipid vesicles in macrophage and block the formation of foam cells; platelet aggregation inhibition (thromboxane A2): platelet aggregation inhibitors
